Data on 28 compounds can be found in patent publication US10092584B2 (Achillion Pharmaceuticals, Inc., priority 2015, dated 2018).

Structures are written as SMILES. pIC50: −log10 of the molar value.

As usually defined, the pIC50 is −log10 of the IC50, conventionally taken in molar units.

The target of this assay is T1, Human Factor D (Homo sapiens, UniProt P00746).
T1 construct: purified from human serum; purchased Complement Technology, Inc; host or cells: human serum
T1 sequence (P00746 26-253): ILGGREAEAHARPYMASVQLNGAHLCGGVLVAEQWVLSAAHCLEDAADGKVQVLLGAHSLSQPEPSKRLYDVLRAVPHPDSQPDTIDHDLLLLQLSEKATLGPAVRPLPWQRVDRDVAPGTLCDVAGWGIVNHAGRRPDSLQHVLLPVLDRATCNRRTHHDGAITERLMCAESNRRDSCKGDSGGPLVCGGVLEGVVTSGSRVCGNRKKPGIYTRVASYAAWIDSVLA
The experiment in a line: Human Factor D assay (Example 8). Format: biochemical. The settings on record: Table 3; Human Factor D 80 nM, substrate Z-L-Lys-SBzl; read-out: IC50 (Stars). The gist of the method:
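Thioesterase activity monitored with Z-L-Lys-SBzl plus Ellman's reagent (DTNB), each 100 μM final, after 5 min room-temperature compound preincubation of 80 nM human serum Factor D in pH 7.5 Tris (50 mM)/1M NaCl.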
In the case of `NC(=O)c1nn(CC(=O)N2C(=O)CC[C@H]2C(=O)Nc2cccc(-c3ccccc3Cl)c2F)c2ccccc12` [Compound 260, (S)-1-(2-(2-(2′-Chloro-2-fluorobiphenyl-3-ylcarbamoyl)-5-oxopyrrolidin-1-yl)-2-oxoethyl)-1H-indazole-3-carboxamide], the pIC50 was above 6.00.
Regarding `CC(=O)c1nn(CC(=O)N2C[Si](C)(C)C[C@H]2C(=O)NCc2cccc(Cl)c2F)c2ccccc12` [Compound 268, (R)-1-(2-(3-acetyl-1H-indazol-1-yl)acetyl)-N-(3-chloro-2-fluorobenzyl)-3,3-dimethyl-1,3-azasilolidine-5-carboxamide], the pIC50 was 5.00 to 6.00.
For the compound `CC(=O)c1nn(CC(=O)N2C[Si](C)(C)C[C@H]2C(=O)Nc2cccc(Br)n2)c2ccccc12` [Compound 271, (R)-1-(2-(3-acetyl-1H-indazol-1-yl)acetyl)-N-(6-bromopyridin-2-yl)-3,3-dimethyl-1,3-azasilolidine-5-carboxamide], the pIC50 is 5.00 to 6.00.
The same measure for `NC(=O)c1nn(CC(=O)N2C[C@H](F)[C@@H](O)[C@H]2C(=O)Nc2cccc(-c3ccccc3Cl)c2F)c2ccccc12` [Compound 279, 1-(2-((2S,3S,4S)-2-(2′-Chloro-2-fluorobiphenyl-3-ylcarbamoyl)-4-fluoro-3-hydroxypyrrolidin-1-yl)-2-oxoethyl)-1H-indazole-3-carboxamide]: above 6.00; for `CO[C@H]1[C@@H](C(=O)Nc2cccc(-c3ccccc3Cl)c2F)N(C(=O)Cn2nc(C(N)=O)c3ccccc32)C[C@@H]1F` [Compound 289, 1-(2-((2S,3S,4S)-2-(2′-Chloro-2-fluorobiphenyl-3-ylcarbamoyl)-4-fluoro-3-methoxypyrrolidin-1-yl)-2-oxoethyl)-1H-indazole-3-carboxamide]: above 6.00.
For `CC(=O)c1cc(CC(=O)N2C[C@H](F)C[C@H]2C(=O)Nc2cccc(-c3ccccc3Cl)c2F)n2ccccc12` [Compound 312, (2S,4R)-1-(2-(1-Acetylindolizin-3-yl)acetyl)-N-(2′-chloro-2-fluorobiphenyl-3-yl)-4-fluoropyrrolidine-2-carboxamide], the pIC50 is above 6.00.
Take `CC(=O)c1cc(CC(=O)N2C[C@H](F)C[C@H]2C(=O)Nc2cccc(Br)n2)n2ccccc12` [Compound 314, (2S,4R)-1-(2-(1-Acetylindolizin-3-yl)acetyl)-N-(6-bromopyridin-2-yl)-4-fluoropyrrolidine-2-carboxamide]: the pIC50 is above 6.00.
Regarding `NC(=O)c1ccc(Cl)c(-c2cccc(NC(=O)[C@@H]3C[C@@H](F)CN3C(=O)Cn3nc(C(N)=O)c4ccccc43)c2F)c1` [Compound 315, 1-(2-((2S,4R)-2-((5′-carbamoyl-2′-chloro-2-fluoro-[1,1′-biphenyl]-3-yl)carbamoyl)-4-fluoropyrrolidin-1-yl)-2-oxoethyl)-1H-indazole-3-carboxamide], the pIC50 is above 6.00.
The same measure for `NC(=O)c1nn(CC(=O)N2C[C@H](F)C[C@H]2C(=O)Nc2cccc(-c3cc(F)c(F)cc3Cl)c2F)c2ccc(Br)cc12` [Compound 319, 5-bromo-1-(2-((2S,4R)-2-((2′-chloro-2,4′,5′-trifluoro-[1,1′-biphenyl]-3-yl)carbamoyl)-4-fluoropyrrolidin-1-yl)-2-oxoethyl)-1H-indazole-3-carboxamide]: above 6.00; for `CC(=O)c1nn(CC(=O)N2C[C@H](F)C[C@H]2C(=O)Nc2cccc(-c3ccccc3Cl)c2F)c2cc(C)sc12` [Compound 323, (2S,4R)-1-(2-(3-Acetyl-5-methyl-1H-thieno[3,2-c]pyrazol-1-yl)acetyl)-N-(2′-chloro-2-fluoro-[1,1′-biphenyl]-3-yl)-4-fluoropyrrolidine-2-carboxamide]: above 6.00.
With `CC(=O)c1cn(CC(=O)N2C[C@H](F)C[C@H]2C(=O)Nc2cccc(-c3ccccc3Cl)c2F)c2cc(F)ccc12` [Compound 325, (2S,4R)-1-(2-(3-acetyl-6-fluoro-1H-indol-1-yl)acetyl)-N-(2′-chloro-2-fluoro-[1,1′-biphenyl]-3-yl)-4-fluoropyrrolidine-2-carboxamide] the figure was above 6.00; with `NC(=O)c1nn(CC(=O)N2C[C@H](F)C[C@H]2C(=O)Nc2cccc(-c3ccccc3Cl)c2F)c2cc(C(=O)O)sc12` [Compound 326, 3-carbamoyl-1-(2-((2S,4R)-2-((2′-chloro-2-fluoro-[1,1′-biphenyl]-3-yl)carbamoyl)-4-fluoropyrrolidin-1-yl)-2-oxoethyl)-1H-thieno[3,2-c]pyrazole-5-carboxylic acid], above 6.00; with `CC(=O)c1cn(CC(=O)N2C[C@H](F)C[C@H]2C(=O)Nc2cccc(-c3ccccc3Cl)c2F)c2cc(Cl)ccc12` [Compound 328, (2S,4R)-1-(2-(3-acetyl-6-chloro-1H-indol-1-yl)acetyl)-N-(2′-chloro-2-fluoro-[1,1′-biphenyl]-3-yl)-4-fluoropyrrolidine-2-carboxamide], above 6.00.
The same measure for `NC(=O)c1nn(CC(=O)N2C[C@H](O)C[C@H]2C(=O)Nc2cccc(-c3ccccc3Cl)c2F)c2ccccc12` [Compound 336, 1-(2-((2S,4R)-2-((2′-chloro-2-fluoro-[1,1′-biphenyl]-3-yl)carbamoyl)-4-hydroxypyrrolidin-1-yl)-2-oxoethyl)-1H-indazole-3-carboxamide]: above 6.00; for `NC(=O)c1nn(CC(=O)N2CCC[C@H]2C(=O)Nc2cccc(-c3ccccc3Cl)c2F)c2ccccc12` [Compound 337, (S)-1-(2-(2-((2′-chloro-2-fluoro-[1,1′-biphenyl]-3-yl)carbamoyl)pyrrolidin-1-yl)-2-oxoethyl)-1H-indazole-3-carboxamide]: above 6.00.
For `COC(=O)c1cccc(NC(=O)[C@@H]2C[C@@H](F)CN2C(=O)Cn2nc(C(N)=O)c3ccccc32)c1F` [Compound 345, methyl 3-((2S,4R)-1-(2-(3-carbamoyl-1H-indazol-1-yl)acetyl)-4-fluoropyrrolidine-2-carboxamido)-2-fluorobenzoate], the negative logarithm of the IC50 (pIC50) is above 6.00.
The same measure for `Cc1sc(Cl)cc1NC(=O)[C@@H]1C[C@@H](F)CN1C(=O)Cn1nc(C(N)=O)c2ccncc21` [Compound 351]: 5.00 to 6.00; for `NC(=O)c1nn(CC(=O)N2C[C@@H](F)C[C@H]2C(=O)Nc2cccc(-c3ccccc3Cl)c2F)c2ccccc12` [Compound 352, 1-(2-((2S,4S)-2-((2′-chloro-2-fluoro-[1,1′-biphenyl]-3-yl)carbamoyl)-4-fluoropyrrolidin-1-yl)-2-oxoethyl)-1H-indazole-3-carboxamide]: above 6.00.
Turning to `NC(=O)c1nn(CC(=O)N2CC(F)(F)C[C@H]2C(=O)Nc2cccc(-c3ccccc3Cl)c2F)c2ccccc12` [Compound 353, (S)-1-(2-(2-((2′-chloro-2-fluoro-[1,1′-biphenyl]-3-yl)carbamoyl)-4,4-difluoropyrrolidin-1-yl)-2-oxoethyl)-1H-indazole-3-carboxamide], the negative-log IC50 (pIC50) is above 6.00.
Regarding `NC(=O)c1nn(CC(=O)N2C[C@@H](O)C[C@H]2C(=O)Nc2cccc(-c3ccccc3Cl)c2F)c2ccccc12` [Compound 354, 1-(2-((2S,4S)-2-((2′-chloro-2-fluoro-[1,1′-biphenyl]-3-yl)carbamoyl)-4-hydroxypyrrolidin-1-yl)-2-oxoethyl)-1H-indazole-3-carboxamide], the pIC50 is above 6.00.
With `NC(=O)c1nn(CC(=O)N2CC(=O)C[C@H]2C(=O)Nc2cccc(-c3ccccc3Cl)c2F)c2ccccc12` [Compound 355, (S)-1-(2-(2-((2′-chloro-2-fluoro-[1,1′-biphenyl]-3-yl)carbamoyl)-4-oxopyrrolidin-1-yl)-2-oxoethyl)-1H-indazole-3-carboxamide], the pIC50 was above 6.00.
With `NC(=O)c1nn(CC(=O)N2CC[C@@H](N)[C@H]2C(=O)Nc2cccc(-c3ccccc3Cl)c2F)c2ccccc12` [Compound 356, 1-(2-((2S,3R)-3-amino-2-((2′-chloro-2-fluoro-[1,1′-biphenyl]-3-yl)carbamoyl)pyrrolidin-1-yl)-2-oxoethyl)-1H-indazole-3-carboxamide], the pIC50 is above 6.00.
With `NC(=O)c1nn(CC(=O)N2C[C@H](F)C[C@H]2C(=O)Nc2nc3cccc(Cl)c3[nH]2)c2ccccc12` [Compound 360, 1-(2-((2S,4R)-2-((7-chloro-1H-benzo[d]imidazol-2-yl)carbamoyl)-4-fluoropyrrolidin-1-yl)-2-oxoethyl)-1H-indazole-3-carboxamide] the figure was above 6.00.
Take `CC(=O)c1nn(CC(=O)N2C[C@H](F)C[C@H]2C(=O)Nc2cccc(-c3ccccc3Cl)c2F)c2cc(C(=O)O)sc12` [Compound 363]: the pIC50 was above 6.00.
Take `CC(=O)c1nc(CC(=O)N2C[C@H](F)C[C@H]2C(=O)Nc2cccc(-c3ccccc3Cl)c2F)n2ccccc12` [Compound 372, (2S,4R)-1-(2-(1-Acetylimidazo[1,5-a]pyridin-3-yl)acetyl)-N-(2′-chloro-2-fluoro-[1,1′-biphenyl]-3-yl)-4-fluoropyrrolidine-2-carboxamide]: the pIC50 is above 6.00.
As for `NC(=O)c1nc(CC(=O)N2C[C@H](F)C[C@H]2C(=O)Nc2cccc(-c3ccccc3Cl)c2F)n2ccccc12` [Compound 373, 3-(2-((2S,4R)-2-((2′-Chloro-2-fluoro-[1,1′-biphenyl]-3-yl)carbamoyl)-4-fluoropyrrolidin-1-yl)-2-oxoethyl)imidazo[1,5-a]pyridine-1-carboxamide], the negative logarithm of the IC50 (pIC50) was above 6.00.
In the case of `NC(=O)c1nn(CC(=O)N2CC[C@@H](O)[C@H]2C(=O)Nc2cccc(-c3ccccc3Cl)c2F)c2ccccc12` [Compound 374], the pIC50 is above 6.00.
Consider `NC(=O)c1cn(CC(=O)N2CCS[C@H]2C(=O)Nc2cccc(-c3ccccc3Cl)c2F)c2ccccc12` [Compound 375, (S)-3-(2-(3-carbamoyl-1H-indol-1-yl)acetyl)-N-(2′-chloro-2-fluoro-[1,1′-biphenyl]-3-yl)thiazolidine-2-carboxamide], for which the pIC50 was above 6.00.
